# System: HCV replicon
# Test: Replicon based assay of HCV replication inhibition (NPT ELISA)
# Format: cell-based, Hepatitis C virus
# Conditions: Hepatitis C virus, replicon based assay of HCV replication inhibition; Table II; read-out: Activity
# Procedure, shortened: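 Huh-7 cells carrying a bicistronic HCV replicon (neo, EMCV-IRES-driven NS3–NS5B) treated overnight after seeding with usually 6 concentrations, 10 to 0.03 micromolar, for three days at 37° C without G418. Replication read as NPT level by captured ELISA; matched-DMSO wells and interferon alpha as controls.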
row,Structure (SMILES),EC50 [nM]
1,"CCCCCCCCOc1ccc(Nc2nc(-c3cccnc3)cs2)cc1C(F)(F)F [compound 476, N-(3-(trifluoromeethyl)-4-(octyloxy)phenyl)-4-(pyridin-3-yl)thiazol-2-amine]",< 1000
2,"CCCCCCCCN(C)c1ccc(Nc2nc(-c3cccnc3)cs2)cc1C(F)(F)F [compound 477, 2-(trifluoromethyl)-N^1-methyl-N^1-octyl-N^4-(4-(pyridin-3-yl)thiazol-2-yl)benzene-1,4-diamine]",< 1000
3,"O=C(Nc1ccc(OCc2ccccc2)cc1)Nc1nc(-c2ccc(Cl)cc2)cs1 [compound 478, 1-(4-(benzyloxy)phenyl)-3-(4-(4-chlorophenyl)thiazol-2-yl)urea]",1000 to 10000
4,"CCCCCCCCOc1ccc(Nc2nc(Cl)cs2)cc1 [compound 479, 4-chloro-N-(4-(octyloxy)phenyl)thiazol-2-amine]",< 1000
5,"CC/C=C\CCCCOc1ccc(Nc2nc(-c3cccnc3)cs2)cc1C(F)(F)F [compound 480, N-(4-((Z)-oct-5-enyloxy)-3-(trifluoromethyl)phenyl)-4-(pyridin-3-yl)thiazol-2-amine]",< 1000
6,"CC/C=C\CCCCOc1ccc(Nc2nc(-c3ccc(C)nc3)cs2)cc1C(F)(F)F [compound 481, N-(4-((Z)-oct-5-enyloxy)-3-(trifluoromethyl)phenyl)-4-(6-methylpyridin-3-yl)thiazol-2-amine]",< 1000
7,"CC/C=C\CCCCOc1ccc(Nc2nc(-c3ccc(F)cc3)cs2)cc1C(F)(F)F [compound 482, N-(4-((Z)-oct-5-enyloxy)-3-(trifluoromethyl)phenyl)-4-(4-fluorophenyl)thiazol-2-amine]",< 1000
8,"CCCCCCCc1ccc(Nc2nc(-c3cccnc3)cs2)cc1 [compound 483, N-(4-heptylphenyl)-4-(pyridin-3-yl)thiazol-2-amine]",< 1000
9,"CCCCCOc1ccc(Nc2nc3c(s2)Cc2ccccc2-3)cc1C(F)(F)F [compound 484, N-(3-(trifluoromethyl)-4-(pentyloxy)phenyl)-8H-indeno[1,2-d]thiazol-2-amine]",< 1000
10,"CCCCCCCCOc1ccc(Nc2nc3c(s2)Cc2ccccc2-3)cc1 [compound 485, N-(4-(octyloxy)phenyl)-8H-indeno[1,2-d]thiazol-2-amine]",< 1000
11,"CCCCCOc1ccc(Nc2nc(-c3ccc(F)nc3)cs2)cc1C(F)(F)F [compound 486, N-(3-(trifluoromethyl)-4-(pentyloxy)phenyl)-4-(6-fluoropyridin-3-yl)thiazol-2-amine]",< 1000
12,"CCCCCCCOc1ccc(Nc2nc(-c3ccc(F)nc3)cs2)cc1 [compound 487, 4-(6-fluoropyridin-3-yl)-N-(4-(heptyloxy)phenyl)thiazol-2-amine]",< 1000
13,CCCCCCCCOc1ccc(Nc2nc(-c3ccc(F)nc3)cs2)cc1 [compound 488],< 1000
14,"CCCCCCCCN(C)c1ccc(Nc2nc(-c3ccc(F)nc3)cs2)cc1C(F)(F)F [compound 489, 2-(trifluoromethyl)-N^4-(4-(6-fluoropyridin-3-yl)thiazol-2-yl)-N^1-methyl-N^1-octylbenzene-1,4-diamine]",< 1000
15,"CCCCCCCCc1ccc(Nc2nc(-c3ccc(F)nc3)cs2)cc1 [compound 490, 4-(6-fluoropyridin-3-yl)-N-(4-octylphenyl)thiazol-2-amine]",< 1000
16,"CCCCCCCCOc1ccc(Nc2nc(Cc3ccccc3)cs2)cn1 [compound 491, N-(4-benzylthiazol-2-yl)-6-(octyloxy)pyridin-3-amine]",1000 to 10000
17,"CCCCCCCCN(C)c1ccc(Nc2nc(Cc3ccccc3)cs2)cc1C(F)(F)F [compound 492, N^4-(4-benzylthiazol-2-yl)-2-(trifluoromethyl)-N^1-methyl-N^1-octylbenzene-1,4-diamine]",1000 to 10000
18,"CCCCCCCCN(C)c1ccc(Nc2nc(Cc3ccccc3)cs2)cc1 [compound 493, N^1-(4-benzylthiazol-2-yl)-N^4-methyl-N^4-octylbenzene-1,4-diamine]",1000 to 10000

# From patent US8088806B2 (Achillion Pharmaceuticals, Inc., priority 2005, dated 2012)
